Assay results as given in US20150259331A1, “PROTOZOAN PARASITE GROWTH INHIBITORS” (Northeastern University, priority 2014, published 2015).
Where a name gives a salt, the structure may show the parent alone. Read-outs that look alike come from different tables or passages of the source. Marks after values point to notes of the source that are not given here.

What was measured:
[1] = system: T. cruzi; assay: T. cruzi growth inhibition; type: cell-based, Trypanosoma cruzi; settings: for inhibition at 10 µM: read-out: T. cruzi % inh at 10 μM
[2] = system: L. major amastigote; assay: L. major amastigote assay; type: cell-based
[3] = system: T. brucei brucei Lister 427; assay: Trypanosome replication assay; type: cell-based, Trypanosoma brucei brucei; settings: 48 h, 48 h, values ±7%
Protocol: (§1) Then 2 μL of DMSO (control) or different concentrations of drugs prepared from 200× DMSO stocks were added to the cultures. Cells were incubated at 37° C. for 48 h and counted with a hemocytometer. […] All experiments were repeated thrice in independent studies where each dose was administered in duplicate (total n=6). HepG2 Cell Toxicity Assay. The 384 well MTT cytotoxicity assay is a modification of the MTT method described by Ferrari et al. optimized for 384-well throughput, with modifications described below.

[4] = system: P. falciparum W2; assay: P. falciparum W2 assay; type: cell-based
[5] = system: P. falciparum D6; assay: P. falciparum D6 assay; type: cell-based; settings: strain D6
[6] = system: L. major promastigote; assay: L. major promastigote assay; type: cell-based
[7] = system: P. falciparum C235; assay: P. falciparum C235 assay; type: cell-based; settings: read-out: P. falciparum C235 (EC50)
[8] = system: HepG2 cells; assay: HepG2 cell toxicity (MTT) assay; type: cell-based
Protocol: as §1, with “cultures.” for “cultures. Cells were incubated at 37° C. for 48 h and counted with a hemocytometer.”
HepG2 Cell Toxicity assay. The 384 well MTT cytotoxicity assay is a modification of the MTT method described by Ferrari et al.^1 ENREF—26_ENREF—26_ENREF—26 optimized for 384 well throughput. […] 4.25 μL of diluted test compound was then added to the 38.3 μL of media in each well providing a 10 fold final dilution of compound. […] After a 48 hour incubation period, 8 μL of a 1.5 mg/ml solution of MTT diluted in complete MEM media was added to each well. All plates were subsequently incubated in the dark for 1 hour at room temperature. After incubation, the media and drugs in each well was removed by shaking plate over sink, the plates are then left to dry in hood for 15 minutes. […] Plates are put on a 3-D rotator for 15-30 minutes. Absorbance was determined in all wells using a Tecan iControl 1.6 Infinite plate reader.

[9] = Trypanosoma brucei, read-out: Tbb EC50, concentration giving 50% inhibition of growth of T brucei brucei Lister 427 cells
[10] = Plasmodium falciparum, strain W2, read-out: P. falciparum W2 (EC50)
[11] = Plasmodium falciparum, strain C235
[12] = Homo sapiens, HepG2, 48 h, read-out: HepG2 IC50, MTT, 48 hour incubation
[13] = Homo sapiens, HepG2, 48 h, MTT, 48 hour incubation, read-out: HepG2 IC50
[14] = concentration giving 50% inhibition of growth of T brucei brucei Lister 427 cells, read-out: Tbb EC50
[15] = strain W2, read-out: P. falciparum W2 (EC50)
[16] = MTT, 48 hour incubation, read-out: HepG2 IC50
[17] = Trypanosoma brucei, concentration giving 50% inhibition of growth of T brucei brucei Lister 427 cells, read-out: Tbb EC50

SMILES	EC50 ([1]; Trypanosoma cruzi) [µM]	EC50 ([2]; Leishmania major) [µM]	EC50 [4, 10] [µM]	EC50 ([5]; Plasmodium falciparum) [µM]	EC50 ([6]; Leishmania major) [µM]	EC50 [7, 11] [µM]	IC50 [8, 13] [µM]	EC50 [3, 17] [µM]	inhibition at 10 µM ([1]; Trypanosoma cruzi) [%]	also measured
O=S(=O)(c1cccc(-c2ccc3ncnc(Nc4ccc(OCc5cccc(F)c5)c(Cl)c4)c3c2)c1)N1CCOCC1 [Compound 10k, N-(3-Chloro-4-((3-fluorobenzyl)oxy)phenyl)-6-(3-(morpholinosulfonyl)phenyl)quinazolin-4-amine]	1.7	> 15	0.4	0.28	> 15	0.29	–	–	–	EC50 [3, 9]: 0.33 µM; IC50 [8, 12]: > 15 µM; IC50 ([8]; read-out: HepG2 IC50, MTT, 48 hour incubation): > 20 µM
CS(=O)(=O)c1cccc(-c2ccc3ncnc(Nc4ccc(OCc5cccc(F)c5)c(Cl)c4)c3c2)c1 [Compound 10u, N-(3-Chloro-4-((3-fluorobenzyl)oxy)phenyl)-6-(3-(methylsulfonyl)phenyl)quinazolin-4-amine]	5	4.7	1.3	0.52	3.5	0.62	> 15	–	–	EC50 [3, 9]: 3.21 µM; EC50 ([3]; read-out: Tbb EC50, concentration giving 50% inhibition of growth of T brucei brucei Lister 427 cells, listed as NEU-633): 3.2 µM
O=S(=O)(c1ccc(-c2ccc3ncnc(Nc4ccc(OCc5cccc(F)c5)c(Cl)c4)c3c2)cc1)N1CCCC1 [Compound 10n]	–	–	–	–	–	–	–	–	–	T. cruzi % inh at 10 μM ([1]; 10 μM): (10)* %; EC50 [2]: > 15 µM; EC50 [3, 14]: 0.35 µM; EC50 [4, 15]: 0.8 µM; EC50 [5]: 0.2 µM; EC50 [6]: > 15 µM; EC50 ([7]; strain C235): 0.42 µM; IC50 [8, 16]: > 15 µM
CS(=O)(=O)c1ccc(-c2ccc3ncnc(Nc4ccc(OCc5cccc(F)c5)c(Cl)c4)c3c2)cc1 [Compound 10t, N-(3-Chloro-4-((3-fluorobenzyl)oxy)phenyl)-6-(4-(methylsulfonyl)phenyl)quinazolin-4-amine]	0.65	3.9	0.36	0.12	1.6	0.2	> 15	0.9	–	–
Fc1cccc(COc2ccc(Nc3ncnc4ccc(-c5cccc(N6CCCCC6)c5)cc34)cc2Cl)c1 [Compound 23g, N-(3-Chloro-4-((3-fluorobenzyl)oxy)phenyl)-6-(3-(piperidin-1-yl)phenyl)quinazolin-4-amine]	–	> 15	–	0.64	> 15	–	–	–	24	EC50 [3, 9]: 0.76 µM; EC50 ([4]; Plasmodium falciparum, W2, read-out: P. falciparum W2 (EC50)): 1.8 µM; EC50 ([7]; Plasmodium falciparum): 1.1 µM; IC50 [8, 12]: > 15 µM
O=S(=O)(c1ccc(-c2ccc3ncnc(Nc4ccc(OCc5cccc(F)c5)c(Cl)c4)c3c2)cc1)N1CCSCC1 [Compound 10r, N-(3-Chloro-4-((3-fluorobenzyl)oxy)phenyl)-6-(4-(thiomorpholinosulfonyl)phenyl)quinazolin-4-amine]	–	> 15	1.6	0.46	> 15	–	> 15	0.47	18	EC50 ([7]; Plasmodium falciparum): 0.76 µM
c1ccc(Nc2ncnc3ccc(-c4cccc(N5CCOCC5)c4)cc23)cc1 [Compound 23o, 6-(3-Morpholinophenyl)-N-phenylquinazolin-4-amine]	6.72	> 15	3.3	3.1	9.4	4.6	7.02	11	–	–
COc1cccc(COc2ccc(Nc3ncnc4ccc(-c5ccc(S(=O)(=O)N6CCOCC6)cc5)cc34)cc2Cl)c1 [Compound 20k, N-(3-Chloro-4-((3-methoxybenzyl)oxy)phenyl)-6-(4-(morpholinosulfonyl)phenyl)quinazolin-4-amine Hydrochloride]	–	15	0.69	0.23	15	0.35	> 15	1.43	5	EC50 ([3]; concentration giving 50% inhibition of growth of T brucei brucei Lister 427 cells, listed as NEU-567, Hydrochloride, read-out: Tbb EC50): 1.4 µM
CN(C)S(=O)(=O)c1ccccc1-c1ccc2ncnc(Nc3ccc(OCc4cccc(F)c4)c(Cl)c3)c2c1 [Compound 10v, 2-(4-((3-Chloro-4-((3-fluorobenzyl)oxy)phenyl)amino)-quinazolin-6-yl)-N,N-dimethylbenzenesulfonamide]	1.5	> 15	1.8	0.82	2.8	–	–	1.04	–	EC50 ([3]; concentration giving 50% inhibition of growth of T brucei brucei Lister 427 cells, listed as NEU-619, read-out: Tbb EC50): 1 µM; EC50 ([7]; Plasmodium falciparum): 1.1 µM; IC50 [8, 12]: > 15 µM
c1ccc(COc2ccc(Nc3ncnc4ccc(-c5cccc(N6CCOCC6)c5)cc34)cc2)cc1 [Compound 23n, N-(4-(Benzyloxy)phenyl)-6-(3-morpholinophenyl)-quinazolin-4-amine]	–	> 15	20	20	2.7	20	> 20	0.18	37	–
Fc1cccc(COc2ccc(Nc3ncnc4ccc(-c5ccc(CN6CCOCC6)cc5)cc34)cc2Cl)c1 [Compound 23d]	–	–	–	–	–	–	–	–	–	EC50 [1]: 0.6 µM; EC50 [2]: 5.9 µM; EC50 [3, 14]: 0.99 µM; EC50 [4, 15]: 0.1 µM; EC50 [5]: 0.064 µM; EC50 [6]: 2.7 µM; EC50 ([7]; strain C235): 0.085 µM; IC50 [8, 16]: 12.9 µM
O=S(=O)(c1ccc(-c2ccc3ncnc(Nc4ccc(OCc5ccccc5)c(Cl)c4)c3c2)cc1)N1CCOCC1 [Compound 20e, N-(4-(Benzyloxy)-3-chlorophenyl)-6-(4-(morpholinosulfonyl)phenyl)quinazolin-4-amine Hydrochloride]	–	> 15	0.72	0.25	0.47	0.45	> 15	1.35	9	EC50 ([3]; concentration giving 50% inhibition of growth of T brucei brucei Lister 427 cells, listed as NEU-551, Hydrochloride, read-out: Tbb EC50): 1.4 µM
O=S(=O)(c1ccc(-c2ccc3ncnc(Nc4ccc(OCc5ccc(F)cc5)c(Cl)c4)c3c2)cc1)N1CCOCC1 [Compound 20j, N-(3-Chloro-4-((4-fluorobenzyl)oxy)phenyl)-6-(4-(morpholinosulfonyl)phenyl)quinazolin-4-amine Hydrochloride]	–	> 15	0.36	0.17	1.7	0.24	> 15	1.34	-1	EC50 ([3]; concentration giving 50% inhibition of growth of T brucei brucei Lister 427 cells, listed as NEU-566, Hydrochloride, read-out: Tbb EC50): 1.3 µM
O=S(=O)(c1ccc(-c2ccc3ncnc(Nc4ccc(OCc5ccc(C(F)(F)F)c(F)c5)c(Cl)c4)c3c2)cc1)N1CCOCC1 [Compound 20l, N-(3-Chloro-4-((3-fluoro-4-(trifluoromethyl)benzyl)oxy)-phenyl)-6-(4-(morpholinosulfonyl)phenyl)quinazolin-4-amine Hydrochloride]	–	2.5	1.11	0.57	14	0.64	> 15	0.54	21	–
O=S(=O)(c1ccc(-c2ccc3ncnc(Nc4ccc(OCc5cccc(F)c5)c(Cl)c4)c3c2)cc1)N1CCOCC1 [Compound 10a, N-(3-Chloro-4-((3-fluorobenzyl)oxy)phenyl)-6-(4-(morpholinosulfonyl)phenyl)quinazolin-4-amine]	–	1.6	0.69	0.22	1.3	0.41	> 15	1.39	-46	EC50 ([3]; concentration giving 50% inhibition of growth of T brucei brucei Lister 427 cells, listed as NEU-369, read-out: Tbb EC50): 1.3 µM; EC50 ([8]; Homo sapiens, HepG2, read-out: HepG2 cell growth EC50): > 15 µM; IC50 [8, 16]: > 20 µM
